{
  "source": "paper PMC5218480",
  "about": "(PLoS ONE, 2017)",
  "tested_on": "MV-4-11 cells",
  "assay": "Gene expression microarray analysis (Affymetrix PrimeView) and GSEA",
  "assay_type": "cell-based, human",
  "design": "RFU PODN (11730768_x_at) / Fold change /veh PODN (11730768_x_at) / RFU LINC00158 (11744669_a_at) / Fold change /veh LINC00158 (11744669_a_at) / RFU DUSP10 (11751237_a_at) / Fold change /veh DUSP10 (11751237_a_at) / RFU ID3 (11757404_x_at) / Fold change /veh ID3 (11757404_x_at) / RFU PLEKHG5 (11737974_s_at) / Fold change /veh PLEKHG5 (11737974_s_at) / RFU LRRC4B (11730491_at) / Fold change /veh LRRC4B (11730491_at) / RFU GIMAP4 (11747438_a_at) / Fold change /veh GIMAP4 (11747438_a_at) / RFU KRT8 (11758183_x_at) / Fold change /veh KRT8 (11758183_x_at) / RFU CNN1 (11734310_a_at) / Fold change /veh CNN1 (11734310_a_at) / RFU VPS37D (11726825_at) / Fold change /veh VPS37D (11726825_at) / RFU C10orf10 (11716522_x_at) / Fold change /veh C10orf10 (11716522_x_at) / RFU KIR2DL2 /// KIR2DL4 /// KIR2DL5A /// KIR2DL5B /// KIR2DS1 /// KIR2DS2 /// KIR2DS3 /// KIR2DS4 /// KIR3DL3 /// KIR3DL3 /// KIR3DS1 (11738374_at) / Fold change /veh KIR2DL2 /// KIR2DL4 /// KIR2DL5A /// KIR2DL5B /// KIR2DS1 /// KIR2DS2 /// KIR2DS3 /// KIR2DS4 /// KIR3DL3 /// KIR3DL3 /// KIR3DS1 (11738374_at) / RFU C1QL1 (11718748_at) / Fold change /veh C1QL1 (11718748_at) / RFU TMPRSS4 (11747572_a_at) / Fold change /veh TMPRSS4 (11747572_a_at) / RFU HAMP (11756126_x_at) / Fold change /veh HAMP (11756126_x_at) / RFU RNFT2 (11725882_a_at) / Fold change /veh RNFT2 (11725882_a_at) / RFU NR4A2 (11747474_a_at) / Fold change /veh NR4A2 (11747474_a_at) / RFU ABCC12 (11746883_a_at) / Fold change /veh ABCC12 (11746883_a_at) / RFU TMEM136 (11760407_x_at) / Fold change /veh TMEM136 (11760407_x_at) / RFU CLDN22 /// WWC2 (11732394_at) / Fold change /veh CLDN22 /// WWC2 (11732394_at) / RFU HLA-DPB1 (11760878_x_at) / Fold change /veh HLA-DPB1 (11760878_x_at) / RFU SPINT1 (11716480_a_at) / Fold change /veh SPINT1 (11716480_a_at) / RFU GAP43 (11754022_s_at) / Fold change /veh GAP43 (11754022_s_at) / RFU A4GNT (11735810_at) / Fold change /veh A4GNT (11735810_at) / RFU PRB3 (11715151_x_at) / Fold change /veh PRB3 (11715151_x_at) / RFU TUBB4B (11761932_at) / Fold change /veh TUBB4B (11761932_at) / RFU CAPN14 (11732068_a_at) / Fold change /veh CAPN14 (11732068_a_at) / RFU TMCC2 (11721928_a_at) / Fold change /veh TMCC2 (11721928_a_at) / RFU IRGQ (11745062_a_at) / Fold change /veh IRGQ (11745062_a_at) / RFU FAM174B (11720279_a_at) / Fold change /veh FAM174B (11720279_a_at) / RFU TMPRSS4 (11748680_a_at) / Fold change /veh TMPRSS4 (11748680_a_at) / RFU FAM212B (11763350_a_at) / Fold change /veh FAM212B (11763350_a_at) / RFU PLEKHG5 (11743358_a_at) / Fold change /veh PLEKHG5 (11743358_a_at) / RFU ZSCAN30 (11745921_a_at) / Fold change /veh ZSCAN30 (11745921_a_at) / RFU CMKLR1 (11741424_a_at) / Fold change /veh CMKLR1 (11741424_a_at) / RFU LOC101060620 /// MAPK8IP1 (11723275_at) / Fold change /veh LOC101060620 /// MAPK8IP1 (11723275_at) / RFU SPTSSB (11747773_x_at) / Fold change /veh SPTSSB (11747773_x_at) / RFU PRSS12 (11739890_at) / Fold change /veh PRSS12 (11739890_at) / RFU BIN1 (11741810_x_at) / Fold change /veh BIN1 (11741810_x_at) / RFU WNT11 (11732464_a_at) / Fold change /veh WNT11 (11732464_a_at) / RFU C10orf10 (11716521_a_at) / Fold change /veh C10orf10 (11716521_a_at) / RFU C5orf56 (11738089_at) / Fold change /veh C5orf56 (11738089_at) / RFU CYB561 (11721691_x_at) / Fold change /veh CYB561 (11721691_x_at) / RFU ANKRD19P (11752326_a_at) / Fold change /veh ANKRD19P (11752326_a_at) / RFU OR2T12 /// OR2T33 /// OR2T8 (11738714_s_at) / Fold change /veh OR2T12 /// OR2T33 /// OR2T8 (11738714_s_at) / RFU VCAN (11748164_a_at) / Fold change /veh VCAN (11748164_a_at) / RFU JSRP1 (11732532_at) / Fold change /veh JSRP1 (11732532_at) / RFU KRTAP10-11 (11738290_x_at) / Fold change /veh KRTAP10-11 (11738290_x_at) / RFU MYO3A (11730013_a_at) / Fold change /veh MYO3A (11730013_a_at) / RFU EBF3 (11725865_a_at) / Fold change /veh EBF3 (11725865_a_at) / RFU CAMK2N1 (11719241_x_at) / Fold change /veh CAMK2N1 (11719241_x_at) / RFU C5orf56 (11738088_a_at) / Fold change /veh C5orf56 (11738088_a_at) / RFU OLFML3 (11715873_a_at) / Fold change /veh OLFML3 (11715873_a_at) / RFU LOC100653217 /// NTM (11731650_a_at) / Fold change /veh LOC100653217 /// NTM (11731650_a_at) / RFU MAPK11 (11762145_a_at) / Fold change /veh MAPK11 (11762145_a_at) / RFU FIZ1 (11724087_x_at) / Fold change /veh FIZ1 (11724087_x_at) / RFU OASL (11726364_x_at) / Fold change /veh OASL (11726364_x_at) / RFU SOX15 (11748057_x_at) / Fold change /veh SOX15 (11748057_x_at) / RFU CD79A (11719716_a_at) / Fold change /veh CD79A (11719716_a_at) / RFU HIST1H1D (11736915_at) / Fold change /veh HIST1H1D (11736915_at) / RFU CASKIN2 (11723855_a_at) / Fold change /veh CASKIN2 (11723855_a_at) / RFU LOC730098 (11760151_x_at) / Fold change /veh LOC730098 (11760151_x_at) / RFU OR4N2 (11742367_at) / Fold change /veh OR4N2 (11742367_at) / RFU PRRT2 (11749266_a_at) / Fold change /veh PRRT2 (11749266_a_at) / RFU SNX32 (11753110_a_at) / Fold change /veh SNX32 (11753110_a_at) / RFU CDHR5 (11726645_a_at) / Fold change /veh CDHR5 (11726645_a_at) / RFU RCAN1 (11760418_a_at) / Fold change /veh RCAN1 (11760418_a_at) / RFU FAM167A (11723789_a_at) / Fold change /veh FAM167A (11723789_a_at) / RFU FAM26E (11764081_at) / Fold change /veh FAM26E (11764081_at) / RFU ISYNA1 (11749810_s_at) / Fold change /veh ISYNA1 (11749810_s_at) / RFU ACY1 (11761880_at) / Fold change /veh ACY1 (11761880_at) / RFU 11764098_at / Fold change /veh 11764098_at / RFU SAMD14 (11745864_x_at) / Fold change /veh SAMD14 (11745864_x_at) / RFU NPB (11741838_a_at) / Fold change /veh NPB (11741838_a_at) / RFU TMPRSS6 (11731388_a_at) / Fold change /veh TMPRSS6 (11731388_a_at) / RFU KRTAP10-2 (11738614_at) / Fold change /veh KRTAP10-2 (11738614_at) / RFU ARHGAP8 /// PRR5-ARHGAP8 (11727945_x_at) / Fold change /veh ARHGAP8 /// PRR5-ARHGAP8 (11727945_x_at) / RFU KRTAP5-7 /// NADSYN1 (11734609_at) / Fold change /veh KRTAP5-7 /// NADSYN1 (11734609_at) / RFU RASL12 (11751679_a_at) / Fold change /veh RASL12 (11751679_a_at) / RFU CDKN2B (11736163_a_at) / Fold change /veh CDKN2B (11736163_a_at) / RFU PRF1 (11729649_at) / Fold change /veh PRF1 (11729649_at) / RFU, ZNF638 /// ZNF638-IT1 / Fold change vs veh, ZNF638 /// ZNF638-IT1 / RFU, PANK3 / Fold change vs veh, PANK3 / RFU, SH3YL1 / Fold change vs veh, SH3YL1 / RFU, ZEB2 / Fold change vs veh, ZEB2 / RFU, NRIP1 / Fold change vs veh, NRIP1 / RFU, PTTG1IP / Fold change vs veh, PTTG1IP / RFU, CAPN2 / Fold change vs veh, CAPN2 / RFU, MED14 / Fold change vs veh, MED14 / RFU, SNORA58 / Fold change vs veh, SNORA58 / RFU, C1orf63 / Fold change vs veh, C1orf63 / RFU, LRRFIP1 / Fold change vs veh, LRRFIP1 / RFU, NDUFAF7 / Fold change vs veh, NDUFAF7 / RFU, SLC12A2 / Fold change vs veh, SLC12A2 / RFU, IBTK / Fold change vs veh, IBTK / RFU, ESF1 / Fold change vs veh, ESF1 / Fold change vs veh, TMEM50B / RFU, TAOK1 / Fold change vs veh, TAOK1 / RFU, ACBD3 / Fold change vs veh, ACBD3 / RFU, TMA16 / Fold change vs veh, TMA16 / RFU, RWDD3 / Fold change vs veh, RWDD3 / RFU, BCAT1 / Fold change vs veh, BCAT1 / RFU, EDEM3 / Fold change vs veh, EDEM3 / RFU, TMEM33 / Fold change vs veh, TMEM33 / RFU, WDR75 / Fold change vs veh, WDR75 / RFU, AHCTF1 / Fold change vs veh, AHCTF1 / RFU, TFRC / Fold change vs veh, TFRC / RFU, ZDHHC17 / Fold change vs veh, ZDHHC17 / RFU, NOM1 / Fold change vs veh, NOM1 / RFU, ARL8B / Fold change vs veh, ARL8B / RFU, ZBTB11 / Fold change vs veh, ZBTB11 / RFU, TAMM41 / Fold change vs veh, TAMM41 / RFU, KIAA1704 /// LOC100996395 / Fold change vs veh, KIAA1704 /// LOC100996395 / RFU, ING1 / Fold change vs veh, ING1 / RFU, TRMT61B / Fold change vs veh, TRMT61B / RFU, FUBP3 / Fold change vs veh, FUBP3 / RFU, TP53 / Fold change vs veh, TP53 / RFU, TNKS2 / Fold change vs veh, TNKS2 / RFU, ZFP14 / Fold change vs veh, ZFP14 / RFU, ACTR2 / Fold change vs veh, ACTR2 / RFU, PPP3R1 / Fold change vs veh, PPP3R1 / RFU, PIK3R1 / Fold change vs veh, PIK3R1 / RFU, HNRNPA1 / Fold change vs veh, HNRNPA1 / RFU, RNF170 / Fold change vs veh, RNF170 / RFU, ZNF28 / Fold change vs veh, ZNF28 / RFU, RNGTT / Fold change vs veh, RNGTT / RFU, OGT / Fold change vs veh, OGT / RFU, BRD1 / Fold change vs veh, BRD1 / RFU, MARS / Fold change vs veh, MARS / RFU, ZNF655 / Fold change vs veh, ZNF655 / RFU, FAHD1 / Fold change vs veh, FAHD1 / RFU, BDP1 / Fold change vs veh, BDP1 / RFU, LRRCC1 / Fold change vs veh, LRRCC1 / RFU, ARID1A / Fold change vs veh, ARID1A / RFU, ZNF146 / Fold change vs veh, ZNF146 / RFU, ZNF330 / Fold change vs veh, ZNF330 / RFU, GPN3 / Fold change vs veh, GPN3 / RFU, C9orf123 / Fold change vs veh, C9orf123 / RFU, N4BP2L2 / Fold change vs veh, N4BP2L2 / RFU, ARFIP1 / Fold change vs veh, ARFIP1 / RFU, FAM179B / Fold change vs veh, FAM179B / RFU, BCL10 / Fold change vs veh, BCL10 / RFU, UHRF1BP1L / Fold change vs veh, UHRF1BP1L / RFU, BET1 / Fold change vs veh, BET1 / RFU, CNOT2 / Fold change vs veh, CNOT2 / RFU, ZNF268 / Fold change vs veh, ZNF268 / Fold change vs veh, ZNF507 / RFU, DGCR2 / Fold change vs veh, DGCR2 / RFU, WDSUB1 / Fold change vs veh, WDSUB1 / Fold change vs veh, HSP90B1 /// MIR3652 / RFU, ADSS / Fold change vs veh, ADSS / RFU, GK / Fold change vs veh, GK / RFU, ZNF148 / Fold change vs veh, ZNF148 / RFU, TAF9 / Fold change vs veh, TAF9 / RFU, SLC1A5 / Fold change vs veh, SLC1A5 / RFU, SLMO2 / Fold change vs veh, SLMO2 / RFU, ABCC4 / Fold change vs veh, ABCC4 / RFU, LOC101060439 /// RAP1B / Fold change vs veh, LOC101060439 /// RAP1B / RFU, RFX7 / Fold change vs veh, RFX7 / RFU, GTPBP10 / Fold change vs veh, GTPBP10 / RFU, CNEP1R1 / Fold change vs veh, CNEP1R1 / RFU, BIVM-ERCC5 /// ERCC5 / Fold change vs veh, BIVM-ERCC5 /// ERCC5 / RFU, ILF3 / Fold change vs veh, ILF3 / RFU 11762660_at / Fold change /veh 11762660_at / RFU VCAN (11757783_s_at) / Fold change /veh VCAN (11757783_s_at) / RFU DDX43 (11728927_at) / Fold change /veh DDX43 (11728927_at) / RFU KRT8 (11758188_x_at) / Fold change /veh KRT8 (11758188_x_at) / RFU NKD1 (11759106_at) / Fold change /veh NKD1 (11759106_at) / RFU SRD5A1 (11742802_a_at) / Fold change /veh SRD5A1 (11742802_a_at) / RFU TPSAB1 /// TPSB2 (11721975_s_at) / Fold change /veh TPSAB1 /// TPSB2 (11721975_s_at) / RFU GSTM3 (11746129_a_at) / Fold change /veh GSTM3 (11746129_a_at) / RFU IL23R (11737362_x_at) / Fold change /veh IL23R (11737362_x_at) / RFU TMEM51 (11727254_a_at) / Fold change /veh TMEM51 (11727254_a_at) / RFU PIWIL2 (11732686_x_at) / Fold change /veh PIWIL2 (11732686_x_at) / RFU ORM1 (11744905_x_at) / Fold change /veh ORM1 (11744905_x_at) / RFU CCDC152 (11743942_at) / Fold change /veh CCDC152 (11743942_at) / RFU ECM1 (11717891_a_at) / Fold change /veh ECM1 (11717891_a_at) / RFU IL23R (11748794_a_at) / Fold change /veh IL23R (11748794_a_at) / RFU TNFAIP8L3 (11732012_x_at) / Fold change /veh TNFAIP8L3 (11732012_x_at) / RFU MBOAT4 (11741988_at) / Fold change /veh MBOAT4 (11741988_at) / RFU 11764193_at / Fold change /veh 11764193_at / RFU TMEM53 (11763286_at) / Fold change /veh TMEM53 (11763286_at) / RFU MAGEB2 (11727129_at) / Fold change /veh MAGEB2 (11727129_at) / RFU TMEM200A (11744735_a_at) / Fold change /veh TMEM200A (11744735_a_at) / RFU CCDC152 (11751479_a_at) / Fold change /veh CCDC152 (11751479_a_at) / RFU FAM211A (11726209_a_at) / Fold change /veh FAM211A (11726209_a_at) / RFU RGS16 (11746705_a_at) / Fold change /veh RGS16 (11746705_a_at) / RFU VCAN (11755009_s_at) / Fold change /veh VCAN (11755009_s_at) / RFU RHOB (11743442_s_at) / Fold change /veh RHOB (11743442_s_at) / RFU RGS16 (11720943_a_at) / Fold change /veh RGS16 (11720943_a_at) / RFU RGS16 (11720944_at) / Fold change /veh RGS16 (11720944_at) / RFU, VPS4B / Fold change vs veh, VPS4B / RFU, CREB1 / Fold change vs veh, CREB1 / RFU, DNAJC13 / Fold change vs veh, DNAJC13 / RFU, GNAQ / Fold change vs veh, GNAQ / RFU, CDK5R1 / Fold change vs veh, CDK5R1 / RFU, ZRANB3 / Fold change vs veh, ZRANB3 / RFU, CUL4A / Fold change vs veh, CUL4A / RFU, CCNY / Fold change vs veh, CCNY / RFU, UFL1 / Fold change vs veh, UFL1 / RFU, COG3 / Fold change vs veh, COG3 / RFU, DIAPH2 / Fold change vs veh, DIAPH2 / RFU, SKA2 / Fold change vs veh, SKA2 / RFU, AFF3 / Fold change vs veh, AFF3 / RFU, LMF1 / Fold change vs veh, LMF1 / RFU, IPO11 / Fold change vs veh, IPO11 / RFU, DFFB / Fold change vs veh, DFFB / RFU, FOXP1 / Fold change vs veh, FOXP1 / RFU, CARD8 / Fold change vs veh, CARD8 / RFU, STRN3 / Fold change vs veh, STRN3 / RFU, ADK / Fold change vs veh, ADK / RFU, RASSF2 / Fold change vs veh, RASSF2 / RFU, WIPF1 / Fold change vs veh, WIPF1 / RFU, LARP1B / Fold change vs veh, LARP1B / RFU, RASA1 / Fold change vs veh, RASA1 / RFU, RB1 / Fold change vs veh, RB1 / RFU, PPFIA1 / Fold change vs veh, PPFIA1 / RFU, MAT2A / Fold change vs veh, MAT2A / RFU, CCT5 / Fold change vs veh, CCT5 / RFU, WDR92 / Fold change vs veh, WDR92 / RFU, CUX1 / Fold change vs veh, CUX1 / RFU, TTC7A / Fold change vs veh, TTC7A / RFU, TMEM135 / Fold change vs veh, TMEM135 / RFU, DEPTOR / Fold change vs veh, DEPTOR / RFU, CPM / Fold change vs veh, CPM / RFU, DNAJB6 / Fold change vs veh, DNAJB6 / RFU, CACNA2D3 / Fold change vs veh, CACNA2D3 / RFU, DTX4 / Fold change vs veh, DTX4 / RFU, TFCP2 / Fold change vs veh, TFCP2 / RFU, GMCL1 /// GMCL1P1 / Fold change vs veh, GMCL1 /// GMCL1P1 / RFU, AEBP2 / Fold change vs veh, AEBP2 / RFU, SNHG1 /// SNORD22 /// SNORD25 /// SNORD26 /// SNORD27 /// SNORD28 /// SNORD29 /// SNORD31 / Fold change vs veh, SNHG1 /// SNORD22 /// SNORD25 /// SNORD26 /// SNORD27 /// SNORD28 /// SNORD29 /// SNORD31 / Fold change (Aza/veh), C12orf56 (ProbeSet 11735607_a_at) / Fold change (ACY-1035/veh), C12orf56 (ProbeSet 11735607_a_at) / Fold change (Aza/veh), FGFR1OP (ProbeSet 11751329_s_at) / Fold change (ACY-1035/veh), FGFR1OP (ProbeSet 11751329_s_at) / Fold change (Aza/veh), VPS36 (ProbeSet 11739960_a_at) / Fold change (ACY-1035/veh), VPS36 (ProbeSet 11739960_a_at) / RFU SYPL1 (11715823_x_at) / Fold change /veh SYPL1 (11715823_x_at) / RFU IGFBP7 (11715501_s_at) / Fold change /veh IGFBP7 (11715501_s_at) / RFU REEP3 (11722064_at) / Fold change /veh REEP3 (11722064_at) / RFU IGLL1 (11728026_x_at) / Fold change /veh IGLL1 (11728026_x_at): dose or concentration left out as unconfirmed",
  "details": "ProbeSet 11748335_a_at; LIST B",
  "data": [
    {"smiles": "Nc1ccc(-c2cccs2)cc1NC(=O)c1ccc2c(c1)cc(C1CC1)n2CCN1CCOCC1", "note": "[ACY-1035]", "values": [
      {"measurement": "RFU, SLMO2", "result": 145.26, "unit": "RFU"}
    ]}
  ]
}
